Measurements published in paper PMC11266321 (EJNMMI Radiopharmacy and Chemistry, 2024).
Several values for one entry are separate records, joined by “and”; a condition that tells them apart may be missing. Equal entries are not always repeated.

Columns and labels:
[1] = Tissue distribution of radioactivity in mice; type: in vivo, mouse; details: mean ± SD n = 4
Description: (§1) [^11C]MMP (8.1 MBq/17 pmol) was injected intravenously into 8-week-old male ddY mice (37.8–42.4 g). The tracer-injected mice were housed individually in filter-paper-lined animal-rearing cages until the time of euthanasia. Mice were euthanized by cervical dislocation at 1, 5, 15, 30, 60, and 90 min after injection (n = 4 each). Blood was collected by heart puncture, and the tissues were harvested. Radioactivity excreted into urine was recovered from the cage floor and by cystocentesis from the urinary bladder. The samples were measured for ^11C radioactivity with an auto-gamma counter (Hidex-AMG, Turku, Finland) and weighed. Tissue uptake of ^11C was expressed as the percentage of injected dose per organ (%ID/organ) or the percentage of injected dose per gram of tissue (%ID/g). The tissue distribution data were extrapolated to an adult male phantom using the %kg/g method (Blau [1975]). The radiation absorbed dose and effective dose for human adults were estimated using OLINDA/EXM software (Vanderbilt University, Nashville, TN) (Stabin et al. [2005]). Effective dose was estimated using the risk-weighting factor of ICRP Publication 103 (ICRP [2007]).

[2] = Radiation dosimetry for human adults estimated from mouse data (OLINDA/EXM)
Description: as §1

[3] = pH 5.36
[4] = human adults, estimated from mouse data

CC(C)NC(C)Cc1ccc([11CH3])cc1 (centres unmarked) [[^11C]MMP, N-isopropyl-4-[^11C]methylamphetamine]
Injected dose/organ (%), Bladder ([1]; 30 min after i.v. injection): 2.40 ± 1.59 %ID/organ | Injected dose/organ (%), Bladder + urine ([1]; 30 min after i.v. injection): 32.99 ± 3.90 %ID/organ | Injected dose/organ (%), Brain ([1]; 30 min after i.v. injection): 1.09 ± 0.11 %ID/organ | Injected dose/organ (%), Heart ([1]; 30 min after i.v. injection): 0.21 ± 0.01 %ID/organ | Injected dose/organ (%), Kidney ([1]; 30 min after i.v. injection): 4.79 ± 1.06 %ID/organ | Injected dose/organ (%), Large intestine ([1]; 30 min after i.v. injection): 1.59 ± 0.61 %ID/organ | Injected dose/organ (%), Liver ([1]; 30 min after i.v. injection): 12.97 ± 1.05 %ID/organ | Injected dose/organ (%), Lung ([1]; 30 min after i.v. injection): 0.79 ± 0.09 %ID/organ | Injected dose/organ (%), Pancreas ([1]; 30 min after i.v. injection): 0.83 ± 0.03 %ID/organ | Injected dose/organ (%), Small intestine ([1]; 30 min after i.v. injection): 3.66 ± 0.59 %ID/organ | Injected dose/organ (%), Spleen ([1]; 30 min after i.v. injection): 0.35 ± 0.07 %ID/organ | Injected dose/organ (%), Stomach ([1]; 30 min after i.v. injection): 1.76 ± 0.50 %ID/organ | Injected dose/organ (%), Testis ([1]; 30 min after i.v. injection): 0.52 ± 0.11 %ID/organ | Injected dose/organ (%), Urine ([1]; 30 min after i.v. injection): 30.59 ± 5.33 %ID/organ | Injected dose/g tissue (%), Blood ([1]; 60 min after i.v. injection): 0.56 ± 0.23 %ID/g | Injected dose/g tissue (%), Bone ([1]; 60 min after i.v. injection): 0.49 ± 0.04 %ID/g | Injected dose/g tissue (%), Brain ([1]; 60 min after i.v. injection): 1.01 ± 0.09 %ID/g | Injected dose/g tissue (%), Heart ([1]; 60 min after i.v. injection): 0.56 ± 0.22 %ID/g | Injected dose/g tissue (%), Kidney ([1]; 60 min after i.v. injection): 3.73 ± 3.22 %ID/g | Injected dose/g tissue (%), Large intestine ([1]; 60 min after i.v. injection): 0.61 ± 0.27 %ID/g | Injected dose/g tissue (%), Liver ([1]; 60 min after i.v. injection): 2.93 ± 0.85 %ID/g | Injected dose/g tissue (%), Lung ([1]; 60 min after i.v. injection): 1.73 ± 0.45 %ID/g | Injected dose/g tissue (%), Muscle ([1]; 60 min after i.v. injection): 0.51 ± 0.24 %ID/g | Injected dose/g tissue (%), Pancreas ([1]; 60 min after i.v. injection): 2.52 ± 0.24 %ID/g | Injected dose/g tissue (%), Small intestine ([1]; 60 min after i.v. injection): 1.88 ± 0.59 %ID/g | Injected dose/g tissue (%), Spleen ([1]; 60 min after i.v. injection): 1.47 ± 0.44 %ID/g | Injected dose/g tissue (%), Stomach ([1]; 60 min after i.v. injection): 1.27 ± 0.89 %ID/g | Injected dose/g tissue (%), Testis ([1]; 60 min after i.v. injection): 1.85 ± 0.35 %ID/g | Injected dose/organ (%), Bladder ([1]; 60 min after i.v. injection): 0.23 ± 0.12 %ID/organ | Injected dose/organ (%), Bladder + urine ([1]; 60 min after i.v. injection): 53.94 ± 7.66 %ID/organ | Injected dose/organ (%), Brain ([1]; 60 min after i.v. injection): 0.41 ± 0.06 %ID/organ | Injected dose/organ (%), Heart ([1]; 60 min after i.v. injection): 0.11 ± 0.03 %ID/organ | Injected dose/organ (%), Kidney ([1]; 60 min after i.v. injection): 2.37 ± 2.03 %ID/organ | Injected dose/organ (%), Large intestine ([1]; 60 min after i.v. injection): 0.85 ± 0.51 %ID/organ | Injected dose/organ (%), Liver ([1]; 60 min after i.v. injection): 6.29 ± 1.96 %ID/organ | Injected dose/organ (%), Lung ([1]; 60 min after i.v. injection): 0.36 ± 0.10 %ID/organ | Injected dose/organ (%), Pancreas ([1]; 60 min after i.v. injection): 0.47 ± 0.04 %ID/organ | Injected dose/organ (%), Small intestine ([1]; 60 min after i.v. injection): 3.41 ± 0.77 %ID/organ | Injected dose/organ (%), Spleen ([1]; 60 min after i.v. injection): 0.17 ± 0.02 %ID/organ | Injected dose/organ (%), Stomach ([1]; 60 min after i.v. injection): 0.82 ± 0.44 %ID/organ | Injected dose/organ (%), Testis ([1]; 60 min after i.v. injection): 0.53 ± 0.15 %ID/organ | Injected dose/organ (%), Urine ([1]; 60 min after i.v. injection): 53.71 ± 7.68 %ID/organ | Injected dose/g tissue (%), Blood ([1]; 90 min after i.v. injection): 0.23 ± 0.09 %ID/g | Injected dose/g tissue (%), Bone ([1]; 90 min after i.v. injection): 0.59 ± 0.14 %ID/g | Injected dose/g tissue (%), Brain ([1]; 90 min after i.v. injection): 0.45 ± 0.08 %ID/g | Injected dose/g tissue (%), Heart ([1]; 90 min after i.v. injection): 0.35 ± 0.14 %ID/g | Injected dose/g tissue (%), Kidney ([1]; 90 min after i.v. injection): 6.64 ± 3.76 %ID/g | Injected dose/g tissue (%), Large intestine ([1]; 90 min after i.v. injection): 0.61 ± 0.16 %ID/g | Injected dose/g tissue (%), Liver ([1]; 90 min after i.v. injection): 1.94 ± 0.88 %ID/g | Injected dose/g tissue (%), Lung ([1]; 90 min after i.v. injection): 1.03 ± 0.13 %ID/g | Injected dose/g tissue (%), Muscle ([1]; 90 min after i.v. injection): 0.42 ± 0.18 %ID/g | Injected dose/g tissue (%), Pancreas ([1]; 90 min after i.v. injection): 1.25 ± 0.34 %ID/g | Injected dose/g tissue (%), Small intestine ([1]; 90 min after i.v. injection): 1.34 ± 1.24 %ID/g | Injected dose/g tissue (%), Spleen ([1]; 90 min after i.v. injection): 0.56 ± 0.17 %ID/g | Injected dose/g tissue (%), Stomach ([1]; 90 min after i.v. injection): 1.52 ± 1.28 %ID/g | Injected dose/g tissue (%), Testis ([1]; 90 min after i.v. injection): 1.47 ± 0.44 %ID/g | Injected dose/organ (%), Bladder ([1]; 90 min after i.v. injection): 2.32 ± 1.75 %ID/organ | Injected dose/organ (%), Bladder + urine ([1]; 90 min after i.v. injection): 58 %ID/organ and 57.89 ± 3.18 %ID/organ | Injected dose/organ (%), Brain ([1]; 90 min after i.v. injection): 0.21 ± 0.07 %ID/organ | Injected dose/organ (%), Heart ([1]; 90 min after i.v. injection): 0.07 ± 0.03 %ID/organ | Injected dose/organ (%), Kidney ([1]; 90 min after i.v. injection): 4.56 ± 2.94 %ID/organ | Injected dose/organ (%), Large intestine ([1]; 90 min after i.v. injection): 0.77 ± 0.16 %ID/organ | Injected dose/organ (%), Liver ([1]; 90 min after i.v. injection): 4.85 ± 2.18 %ID/organ | Injected dose/organ (%), Lung ([1]; 90 min after i.v. injection): 0.23 ± 0.03 %ID/organ | Injected dose/organ (%), Pancreas ([1]; 90 min after i.v. injection): 0.25 ± 0.05 %ID/organ | Injected dose/organ (%), Small intestine ([1]; 90 min after i.v. injection): 2.47 ± 2.43 %ID/organ | Injected dose/organ (%), Spleen ([1]; 90 min after i.v. injection): 0.08 ± 0.03 %ID/organ | Injected dose/organ (%), Stomach ([1]; 90 min after i.v. injection): 0.84 ± 0.56 %ID/organ | Injected dose/organ (%), Testis ([1]; 90 min after i.v. injection): 0.49 ± 0.17 %ID/organ | Injected dose/organ (%), Urine ([1]; 90 min after i.v. injection): 55.57 ± 3.04 %ID/organ | Effective dose ([2]; administration of 740 MBq): 4.0 mSv | highest absorbed dose, urinary bladder wall ([2]; administration of 740 MBq): 42.6 mGy | Absorbed dose, Adrenal [2, 4]: 2.21 µGy/MBq | Absorbed dose, Brain [2, 4]: 3.67 µGy/MBq | Absorbed dose, Breast [2, 4]: 1.34 µGy/MBq | Absorbed dose, Gallbladder wall [2, 4]: 2.43 µGy/MBq | Absorbed dose, Heart wall [2, 4]: 3.02 µGy/MBq | Absorbed dose, Kidney [2, 4]: 8.6 µGy/MBq and 8.56 µGy/MBq | Absorbed dose, Liver [2, 4]: 4.78 µGy/MBq | Absorbed dose, Lower large intestine wall [2, 4]: 4.03 µGy/MBq | Absorbed dose, Lungs [2, 4]: 7.3 µGy/MBq and 7.29 µGy/MBq | Absorbed dose, Muscle [2, 4]: 2.70 µGy/MBq | Absorbed dose, Osteogenic cells [2, 4]: 2.41 µGy/MBq | Absorbed dose, Ovaries [2, 4]: 3.09 µGy/MBq | Absorbed dose, Pancreas [2, 4]: 5.5 µGy/MBq and 5.53 µGy/MBq | Absorbed dose, Red marrow [2, 4]: 2.12 µGy/MBq | Absorbed dose, Skin [2, 4]: 1.29 µGy/MBq | Absorbed dose, Small intestine [2, 4]: 4.51 µGy/MBq | Absorbed dose, Spleen [2, 4]: 3.57 µGy/MBq | Absorbed dose, Stomach wall [2, 4]: 3.59 µGy/MBq | Absorbed dose, Testes [2, 4]: 2.66 µGy/MBq | Absorbed dose, Thymus [2, 4]: 1.70 µGy/MBq | Absorbed dose, Thyroid [2, 4]: 1.62 µGy/MBq | Absorbed dose, Total body [2, 4]: 2.65 µGy/MBq | Absorbed dose, Upper large intestine wall [2, 4]: 3.32 µGy/MBq | Absorbed dose, Urinary bladder wall [2, 4]: 57.6 µGy/MBq | Absorbed dose, Uterus [2, 4]: 4.51 µGy/MBq | Radiochemical purity (stability test), mean of three runs [3]: 99.7 ± 0.2%
